Assay results from PubChem BioAssay AID2060897 (Molecular Pharmacology Branch, DTP, NCI, 2025).

System: 966289-007-R4-J1-PDC complex spheroid viability
Test: Anticancer human tumor 966289-007-R4-J1-PDC patient-derived pancreatic adenocarcinoma cell line growth inhibition [RAS]
Conditions: for IC50: curve of first compound; for viability, T/C: stronger effect = lower value
Outline: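 Agents were tested in combination matrices in half-log decrements from a top concentration at or near clinical Cmax (10 microM if undetermined). Targets were multi-cell spheroids of tumour lines plus HUVEC and MSC stromal cells.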
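Further: spheroids exposed to agents for one week before readout.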
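Wherever viability, T/C is given: percent viability relative to DMSO vehicle control wells as 100%.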

`CC(Nc1ccc2c(c1)OCCn1cc(N3C(=O)OCC3C(F)F)nc1-2)C(N)=O` (configuration not stated) + C#Cc1c(F)ccc2cc(O)cc(-c3ncc4c(N5CC6CCC(C5)N6)nc(OCC56CCCN5CC(F)C6)nc4c3F)c12 was tested, and the IC50 (second compound 0.0316 µM) was over 10 µM, the IC50 (second compound 0.1 µM) was over 10 µM and the IC50 (second compound 0.316 µM) was over 10 µM. It also gave an IC50 (second compound 1 µM) of over 10 µM, an IC50 (second compound 3.16 µM) of over 10 µM and an IC50 (second compound 10 µM) of over 10 µM. The viability, T/C (second compound 0.0316 µM, first compound 0.0316 µM) was 108%, the viability, T/C (second compound 0.0316 µM, first compound 0.1 µM) was 106% and the viability, T/C (second compound 0.0316 µM, first compound 0.316 µM) was 100%. For the same compound, the viability, T/C (second compound 0.0316 µM, first compound 1 µM) was 95.5%, the viability, T/C (second compound 0.0316 µM, first compound 3.16 µM) was 107% and the viability, T/C (second compound 0.0316 µM, first compound 10 µM) was 86.8%. It also gave a viability, T/C (second compound 0.1 µM, first compound 0.0316 µM) of 104%, a viability, T/C (second compound 0.1 µM, first compound 0.1 µM) of 110% and a viability, T/C (second compound 0.1 µM, first compound 0.316 µM) of 101%. The viability, T/C (second compound 0.1 µM, first compound 1 µM) was 112%, the viability, T/C (second compound 0.1 µM, first compound 3.16 µM) was 111% and the viability, T/C (second compound 0.1 µM, first compound 10 µM) was 86.9%. For the same compound, the viability, T/C (second compound 0.316 µM, first compound 0.0316 µM) was 110%, the viability, T/C (second compound 0.316 µM, first compound 0.1 µM) was 102% and the viability, T/C (second compound 0.316 µM, first compound 0.316 µM) was 91.6%. It also gave a viability, T/C (second compound 0.316 µM, first compound 1 µM) of 95.3%, a viability, T/C (second compound 0.316 µM, first compound 3.16 µM) of 94.8% and a viability, T/C (second compound 0.316 µM, first compound 10 µM) of 77.3%. For the same compound, the viability, T/C (second compound 1 µM, first compound 0.0316 µM) was 109%, the viability, T/C (second compound 1 µM, first compound 0.1 µM) was 109% and the viability, T/C (second compound 1 µM, first compound 0.316 µM) was 121%. For the same compound, the viability, T/C (second compound 1 µM, first compound 1 µM) was 113%, the viability, T/C (second compound 1 µM, first compound 3.16 µM) was 115% and the viability, T/C (second compound 1 µM, first compound 10 µM) was 81.2%. It also gave a viability, T/C (second compound 3.16 µM, first compound 0.0316 µM) of 104%, a viability, T/C (second compound 3.16 µM, first compound 0.1 µM) of 95% and a viability, T/C (second compound 3.16 µM, first compound 0.316 µM) of 115%. The viability, T/C (second compound 3.16 µM, first compound 1 µM) was 91.6%, the viability, T/C (second compound 3.16 µM, first compound 3.16 µM) was 97% and the viability, T/C (second compound 3.16 µM, first compound 10 µM) was 83.1%. For the same compound, the viability, T/C (second compound 10 µM, first compound 0.0316 µM) was 98.9%, the viability, T/C (second compound 10 µM, first compound 0.1 µM) was 113% and the viability, T/C (second compound 10 µM, first compound 0.316 µM) was 119%. The viability, T/C (second compound 10 µM, first compound 1 µM) was 104%, the viability, T/C (second compound 10 µM, first compound 3.16 µM) was 95.9% and the viability, T/C (second compound 10 µM, first compound 10 µM) was 90.7%.
